Among the test systems are SF-268; Malme-3M; 786-0; BT-549; A498; SF-539; OVCAR-5; T47D; PC-3; HCT-15; M14; RXF 393; SK-OV-3; NCI/ADR-RES; OVCAR-3; DU-145; EKVX; OVCAR-4; SF-295; HOP-62.
Holding throughout (assay): growth of human tumour cells (NCI), 48 h

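Results reflect a 48-hour exposure of cells in 96-well plates to compound at five concentrations. GI50 is the concentration that inhibits growth by half.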 Activity calls are given as the source filed them. Rule as the data show it: active = GI50 up to about 1.1 µM and inactive = higher. Where only a bound is given, the exact number is not on record here.

Take `CC1=C[C@@H](C)C[C@]2(C)CC[C@H](O2)[C@]23CC[C@](C(=O)O)(C[C@H](O2)[C@@H]2O[C@@](C)(CC2=O)[C@@H](O)[C@H]2CC[C@@]4(CCC[C@@H](O4)[C@H](C)C(=O)O[C@H]4C[C@H]([C@]5(O)OCC[C@H](C)[C@@H]5O)O[C@H]4C=C1)O2)O3`: the GI50 in the assay with SF-268 is > 10 µM (inactive); with Malme-3M, > 10 µM (inactive); in the assay on 786-0 it was > 10 µM (inactive); in the assay on BT-549, > 7.83 µM (inactive); with A498, > 5.75 µM (inactive); in the assay on SF-539, > 5.82 µM (inactive). In addition, the GI50 in the assay with OVCAR-5 is > 10 µM (inactive); in the assay on T47D, > 10 µM (inactive); in the assay on PC-3, > 10 µM (inactive); with HCT-15, over 10 µM; in the assay with M14, > 9.38 µM (inactive); in the assay on RXF 393, > 10 µM (inactive). Moreover, the GI50 in the assay on SK-OV-3, in the assay on NCI/ADR-RES, in the assay with OVCAR-3, with DU-145, in the assay with EKVX and in the assay with OVCAR-4 was > 10 µM (inactive) each time. Also, the GI50 is > 5.86 µM (inactive) with SF-295 and > 9.59 µM (inactive) in the assay on HOP-62.

In the case of `Cc1ccccc1N1C(N)=C(C#N)C(C#N)(C#N)C1c1ccccc1` (stereo not given), the GI50 with SF-268 is 20.9 µM (inactive); in the assay with Malme-3M, 16.4 µM (inactive); in the assay with 786-0, 17.3 µM (inactive); in the assay on BT-549, 13.6 µM (inactive); with A498, 16.6 µM (inactive); in the assay with SF-539 it was 21.2 µM (inactive). For the same compound, the GI50 with OVCAR-5 is 21.9 µM (inactive); in the assay on T47D, 12.5 µM (inactive); in the assay with PC-3 it was 24.6 µM (inactive); in the assay with HCT-15, 16.6 µM; in the assay with M14 it was 23.4 µM (inactive); with RXF 393, 15.3 µM (inactive). Further, the GI50 in the assay on SK-OV-3 is 31.3 µM (inactive); in the assay with NCI/ADR-RES, 20.7 µM (inactive); in the assay with OVCAR-3 it was 17.2 µM (inactive); with DU-145, 16.7 µM (inactive); in the assay with EKVX, 17.9 µM (inactive); with OVCAR-4, 19 µM (inactive). In addition, the GI50 in the assay with SF-295 is 24.7 µM (inactive); with HOP-62, 19.4 µM (inactive).

Regarding `CN(C)CCn1c(CO)nc2c1c(=O)n(C)c(=O)n2C`, the GI50 with SF-268, in the assay with Malme-3M, in the assay on 786-0, with BT-549, in the assay with A498 and with SF-539 was > 100 µM (inactive) in each case. Besides, the GI50 with OVCAR-5 was > 100 µM (inactive); with T47D it was > 100 µM (inactive); with PC-3, > 100 µM (inactive); in the assay on HCT-15, over 100 µM; in the assay on M14, > 100 µM (inactive); in the assay on RXF 393 it was > 100 µM (inactive). Besides, the GI50 in the assay on SK-OV-3, with NCI/ADR-RES, with OVCAR-3, in the assay on DU-145, with EKVX and in the assay with OVCAR-4 was > 100 µM (inactive) in each case. Besides, the GI50 in the assay with SF-295 and in the assay on HOP-62 was > 100 µM (inactive) each time.

Take `C=CC[C@H]1[C@@H](O[Si](C)(C)C(C)(C)C)[C@H](n2ccc(=O)[nH]c2=O)O[C@@H]1CO[Si](C)(C)C(C)(C)C`: the GI50 in the assay with SF-268 is 2.99 µM (inactive); in the assay on Malme-3M it was 2.89 µM (inactive); in the assay with 786-0, 1.56 µM (inactive); with BT-549 it was 3.05 µM (inactive); in the assay with A498, 3.01 µM (inactive); in the assay with SF-539 it was 4.19 µM (inactive). Also, the GI50 with OVCAR-5 is 1.5 µM (inactive); in the assay on T47D it was 2.61 µM (inactive); with PC-3, 2.44 µM (inactive); with HCT-15 it was 1.77 µM; in the assay on M14, 1.57 µM (inactive); in the assay with RXF 393 it was 1.56 µM (inactive). Also, the GI50 was 1.36 µM (inactive) in the assay on SK-OV-3; 2.15 µM (inactive) in the assay with NCI/ADR-RES; 1.52 µM (inactive) with OVCAR-3; 2.09 µM (inactive) in the assay on DU-145; 1.67 µM (inactive) in the assay with EKVX; 1.82 µM (inactive) with OVCAR-4. The GI50 in the assay with SF-295 is 1.98 µM (inactive); in the assay with HOP-62, 1.76 µM (inactive).

For `CC(=O)OCC(=O)O[C@@H]1[C@H]2[C@@H](OC(=O)c3ccccc3)[C@@H](C)C[C@]2(O)[C@H](OC(C)=O)[C@@]2(C)C[C@]1(OC(C)=O)C[C@H]1C(=O)C(C)(C)[C@@H](OC(C)=O)[C@@H]12`, the GI50 was > 25 µM (inactive) in the assay with SF-268; > 25 µM (inactive) with Malme-3M; > 20 µM (inactive) in the assay on 786-0; > 25 µM (inactive) in the assay with BT-549; 13.4 µM (inactive) with A498; > 25 µM (inactive) in the assay with SF-539. The GI50 with OVCAR-5 was 10 µM (inactive); with T47D, > 25 µM (inactive); in the assay on PC-3, 22.4 µM (inactive); with HCT-15, over 25 µM; in the assay on M14, > 12.1 µM (inactive); with RXF 393, > 25 µM (inactive). The GI50 in the assay on SK-OV-3 is > 25 µM (inactive); in the assay with NCI/ADR-RES it was > 25 µM (inactive); in the assay with OVCAR-3 it was > 25 µM (inactive); in the assay on DU-145, > 25 µM (inactive); with EKVX, 24.8 µM (inactive); in the assay on OVCAR-4, > 20.9 µM (inactive). Also, the GI50 in the assay with SF-295 is 6.01 µM (inactive); in the assay with HOP-62, 5.78 µM (inactive).

As for `CC(C)C(Cl)CCC(C)(Cl)C(=O)CBr` (stereo not given), the GI50 was 20.7 µM (inactive) in the assay on SF-268; 9.57 µM (inactive) in the assay with Malme-3M; 3.96 µM (inactive) in the assay on 786-0; 8.55 µM (inactive) in the assay on BT-549; 15 µM (inactive) in the assay with A498; 16.9 µM (inactive) in the assay with SF-539. The GI50 with OVCAR-5 was 12.8 µM (inactive); in the assay on T47D it was 2.44 µM (inactive); in the assay on PC-3, 8.3 µM (inactive); in the assay on HCT-15, 2.99 µM; in the assay on M14, 3.43 µM (inactive); with RXF 393 it was 2.44 µM (inactive). Moreover, the GI50 in the assay with SK-OV-3 was 20 µM (inactive); in the assay with NCI/ADR-RES, 6.81 µM (inactive); with OVCAR-3, 6.18 µM (inactive); in the assay on DU-145, 17.8 µM (inactive); in the assay with EKVX, 18.2 µM (inactive); in the assay with OVCAR-4, 4.6 µM (inactive). The GI50 is 19.3 µM (inactive) in the assay with SF-295 and 8.22 µM (inactive) with HOP-62.

Regarding `COc1cc(C(N)=O)cc(NC(=O)/C=C/c2ccccc2)c1OC`, the GI50 in the assay on SF-268 is 64.3 µM (inactive); in the assay on Malme-3M, > 100 µM (inactive); in the assay on 786-0 it was > 100 µM (inactive); in the assay with BT-549 it was > 100 µM (inactive); in the assay with A498, > 100 µM (inactive); in the assay with SF-539, 83 µM (inactive). In addition, the GI50 in the assay with OVCAR-5 was > 100 µM (inactive); with T47D, 71.1 µM (inactive); in the assay with PC-3, > 100 µM (inactive); in the assay with HCT-15 it was over 100 µM; in the assay with M14 it was > 100 µM (inactive); with RXF 393, > 100 µM (inactive). The GI50 with SK-OV-3 was 49.4 µM (inactive); with NCI/ADR-RES, > 100 µM (inactive); with OVCAR-3 it was 97.5 µM (inactive); in the assay on DU-145 it was > 100 µM (inactive); with EKVX it was 89.7 µM (inactive); in the assay on OVCAR-4, > 100 µM (inactive). Also, the GI50 in the assay on SF-295 was 59.6 µM (inactive); with HOP-62, > 100 µM (inactive).

Regarding `CCN(CC)CCNc1c2ccccc2nc2cccc([N+](=O)[O-])c12`, the GI50 was 0.012 µM (active) in the assay with SF-268; 0.00953 µM (active) with Malme-3M; 0.0136 µM (active) in the assay on 786-0; 0.005 µM (active) in the assay with BT-549; 0.00782 µM (active) in the assay on A498; 0.0224 µM (active) with SF-539. The GI50 is 0.0101 µM (active) in the assay on OVCAR-5; 0.0101 µM (active) in the assay with T47D; 0.00301 µM (active) in the assay with PC-3; 0.00701 µM with HCT-15; 0.00925 µM (active) in the assay on M14; 0.0176 µM (active) in the assay with RXF 393. For the same compound, the GI50 was 0.0343 µM (active) with SK-OV-3; 0.0112 µM (active) in the assay on NCI/ADR-RES; 0.0123 µM (active) in the assay on OVCAR-3; 0.0031 µM (active) in the assay with DU-145; 0.0177 µM (active) in the assay with EKVX; 0.0125 µM (active) in the assay on OVCAR-4. For the same compound, the results for the GI50 in the assay on SF-295 and in the assay on HOP-62 were 0.00912 µM (active) and 0.00638 µM (active), respectively.

For `CC(=O)NC1=C(C)C(=O)c2c(nc3n2CCC3OC(=O)c2ccccc2)C1=N` (stereo not given), the GI50 in the assay with SF-268 is 2.18 µM (inactive); in the assay with Malme-3M, 1.13 µM (inactive); in the assay on 786-0, 1.93 µM (inactive); with BT-549 it was 0.689 µM (active); in the assay with A498, 1.96 µM (inactive); with SF-539, 1.25 µM (inactive). The GI50 is 2.98 µM (inactive) with OVCAR-5; 1.85 µM (inactive) in the assay with T47D; 1.32 µM (inactive) with PC-3; 2.72 µM in the assay on HCT-15; 1.01 µM (active) in the assay with M14; 1.29 µM (inactive) in the assay with RXF 393. Moreover, the GI50 was 3.36 µM (inactive) in the assay on SK-OV-3; 2.93 µM (inactive) in the assay on NCI/ADR-RES; 0.552 µM (active) with OVCAR-3; 1.97 µM (inactive) in the assay on DU-145; 2.55 µM (inactive) in the assay on EKVX; 0.518 µM (active) in the assay with OVCAR-4. Also, the values for the GI50 in the assay with SF-295 and in the assay on HOP-62 were 2.86 µM (inactive) and 3.09 µM (inactive), respectively.

For `O=C(CNc1ccc2c(=S)c3ccccc3[nH]c2c1)Nc1ccccc1-c1ccccc1NC(=O)CNc1ccc2c(=S)c3ccccc3[nH]c2c1`, the GI50 with SF-268 is 22 µM (inactive); in the assay on Malme-3M it was 15.7 µM (inactive); in the assay with 786-0 it was 13.1 µM (inactive); with BT-549, 23.8 µM (inactive); in the assay with A498, 25.2 µM (inactive); with SF-539, 24.7 µM (inactive). Moreover, the GI50 was 28.7 µM (inactive) in the assay on OVCAR-5; 15.6 µM (inactive) in the assay on T47D; 19.4 µM (inactive) in the assay on PC-3; 19.4 µM in the assay on HCT-15; 16.3 µM (inactive) in the assay on M14; 27 µM (inactive) with RXF 393. Further, the GI50 was 26.3 µM (inactive) in the assay with SK-OV-3; 31.2 µM (inactive) in the assay with NCI/ADR-RES; 24.8 µM (inactive) in the assay on OVCAR-3; 18.3 µM (inactive) in the assay on DU-145; 24.4 µM (inactive) with EKVX; 3.94 µM (inactive) with OVCAR-4. The GI50 with SF-295 was 21.2 µM (inactive); with HOP-62, 24.3 µM (inactive).

The record behind these values is ChEMBL document CHEMBL1201862, “PubChem BioAssay data set” (2004).
